For data set [1], the system named is K562 CRISPRi cells. The experiment in a line: Perturb-seq pooled growth measurement (sgRNA counts, growth phenotype γ, relative activity). The data set is classed as cell-based, human. To be noted: for gamma_day5 / gamma_day10: pooled growth phenotype γ of the Perturb-seq sgRNA; for gamma_day5: day 5, K562 CRISPRi cells; for gamma_day10: day 10, K562 CRISPRi cells; for relative_activity_day5: γ relative to perfectly matched sgRNA (_00) of the same gene, day 5. Summed up:
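CRISPRi K562 cells from the Perturb-seq transduced pool; 500,000-cell samples taken days two, seven and twelve post-transduction. sgRNA amplicons from genomic DNA sequenced; growth phenotypes from normalized sgRNA abundances at days seven and twelve versus day two. Relative activity assigned from day seven (five days' growth).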

Data set [2] relates to K562 CRISPRi cells. The data set is described as above. It counts as cell-based, human. The following applies: γ relative to perfectly matched sgRNA (_00) of the same gene, day 10.

“RAN_ + _131356438.23-P1P2_12 (guide GGCGGTCGCTGCGCTTAGGT; listed as DNA, chemistry not fully specified)”: in data set [1], the gamma_day5 is −0.04655, the gamma_day10 was −0.03426 and the relative_activity_day5 was found to be 0.2358. The relative_activity_day10 in data set [2] is 0.2122.
“RPL9_ + _39460483.23-P1P2_00 (guide GGATGTTTCTGTGCTCGTGG; listed as DNA, chemistry not fully specified)”: in data set [1], the gamma_day5 is given as −1.113, the gamma_day10 was −0.6699 and the relative_activity_day5 was determined as 1. This substance also displayed a relative_activity_day10 in data set [2] of 1.
With “RPL9_ + _39460483.23-P1P2_01 (guide GGATGATTCTGTGCTCGTGG; listed as DNA, chemistry not fully specified)”, in data set [1], the gamma_day5 is −0.8528, the gamma_day10 is −0.4984 and the relative_activity_day5 stood at 0.7661. In data set [2], this substance showed a relative_activity_day10 of 0.7441.
On the same counts, the results for “RPL9_ + _39460483.23-P1P2_04 (guide GGATGTTTCAGTGCTCGTGG; listed as DNA, chemistry not fully specified)” are −0.4171, −0.2942, 0.3747 and 0.4392.
With “RPL9_ + _39460483.23-P1P2_05 (guide GGATGTTTCGGTGCTCGTGG; listed as DNA, chemistry not fully specified)”, in data set [1], the gamma_day5 is −0.6073, the gamma_day10 is reported as −0.3848 and the relative_activity_day5 came out at 0.5456. In data set [2], this substance gave a relative_activity_day10 of 0.5745.
On the same counts, the results for “RPL9_ + _39460483.23-P1P2_07 (guide GGATGTTTCTGCGCTCGTGG; listed as DNA, chemistry not fully specified)” are −0.2924, −0.2073, 0.2627 and 0.3095.
Taken in the same sequence, the figures for “RPS14_ + _149829238.23-P1P2_00 (guide GAGGCCCGGGCGCGACAATC; listed as DNA, chemistry not fully specified)” were −0.7908, −0.4995, 1 and 1.
“RPS14_ + _149829238.23-P1P2_01 (guide GAGACCCGGGCGCGACAATC; listed as DNA, chemistry not fully specified)”: in data set [1], the gamma_day5 is reported as −0.7548, the gamma_day10 is recorded as −0.4807 and the relative_activity_day5 was 0.9545. In addition, in data set [2], the relative_activity_day10 was determined as 0.9624.
On the same counts, the results for “RPS14_ + _149829238.23-P1P2_02 (guide GAGGCCCTGGCGCGACAATC; listed as DNA, chemistry not fully specified)” are −0.5845, −0.3829, 0.739 and 0.7666.
Taken in the same sequence, the figures for “RPS14_ + _149829238.23-P1P2_04 (guide GAGGCCCGCGCGCGACAATC; listed as DNA, chemistry not fully specified)” were −0.3025, −0.1958, 0.3825 and 0.3919.
Turning to “RPS14_ + _149829238.23-P1P2_08 (guide GAGGCCCGGGCTCGACAATC; listed as DNA, chemistry not fully specified)”, in data set [1], the gamma_day5 was 0.02738, the gamma_day10 is recorded as −0.0006109 and the relative_activity_day5 is listed as −0.03462. Moreover, the relative_activity_day10 in data set [2] came out at 0.001223.

For the origin of these results see patent US20220259593A1, “CONTROL OF MAMMALIAN GENE DOSAGE USING CRISPR” (The Regents of the University of California, priority 2019, published 2022).
